Assay results published in ChEMBL document CHEMBL1121424, “Orally active cephalosporins and penicillins” (J Med Chem, 1980).
In brackets after ≈: the same amount, converted by molar mass.

Experiments:
[1] = tested on: Enterococcus faecalis; experiment: Tested for inhibition of visible growth of Streptococcus faecalis; format: functional
[2] = tested on: Streptococcus pneumoniae; experiment: Tested for inhibition of visible growth of Streptococcus pneumoniae; format: functional
[3] = tested on: Streptococcus pneumoniae; experiment: (§1) Tested for the antimicrobial activity against Streptococcus pneumoniae in mice; format: functional
[4] = organism: Mus musculus; experiment: Tested for the antimicrobial activity against Staphylococcus aureus, benzyl-penicillin resistant in mice, perorally; format: functional; conditions: po
[5] = tested on: Proteus mirabilis; experiment: Tested for inhibition of visible growth of Proteus mirabilis; format: functional
[6] = tested on: Klebsiella aerogenes; experiment: Tested for inhibition of visible growth of Enterobacter aerogenes; format: functional
[7] = tested on: Streptococcus pyogenes; experiment: (§2) Tested for the antimicrobial activity against Streptococcus pyogenes in mice; format: functional
[8] = tested on: Streptococcus pyogenes; experiment: as §2; format: functional; remark: listed apart in the source
[9] = tested on: Staphylococcus aureus; experiment: Tested for inhibition of visible growth of Staphylococcus aureus; format: functional
[10] = tested on: Staphylococcus aureus; experiment: Tested for inhibition of visible growth of Staphylococcus aureus, benzyl-penicillin sensitive; format: functional
[11] = tested on: Streptococcus pneumoniae; experiment: as §1; format: functional; remark: listed apart in the source
[12] = tested on: Klebsiella pneumoniae; experiment: Tested for inhibition of visible growth of Klebsiella pneumoniae; format: functional
[13] = tested on: Enterobacter cloacae; experiment: Tested for inhibition of visible growth of Enterobacter cloacae; format: functional
[14] = Tested for inhibition of visible growth of Salmonella schottmuelleri; format: functional
[15] = tested on: Staphylococcus aureus; experiment: Tested for the antimicrobial activity against Staphylococcus aureus; format: functional
[16] = tested on: Escherichia coli; experiment: Tested for inhibition of visible growth of Escherichia coli; format: functional
[17] = tested on: Streptococcus pyogenes; experiment: Tested for inhibition of visible growth of Streptococcus pyogenes; format: functional
[18] = tested on: Staphylococcus aureus; experiment: Tested for the antimicrobial activity against Staphylococcus aureus, benzyl-penicillin sensitive in mice, perorally; format: functional; conditions: po
[19] = tested on: Escherichia coli; experiment: Tested for the antimicrobial activity against Escherichia coli in mice; format: functional
[20] = tested on: Escherichia coli; experiment: Tested for the antimicrobial activity against Escherichia coli in mice perorally; format: functional; conditions: po
[21] = (§3) Tested for the antimicrobial activity against Salmonella schottmuelleri in mice; format: functional
[22] = as §3; format: functional; remark: listed apart in the source
[23] = Tested for the peak time in mice following 12.5 mg/kg oral dose of cephalosporin; format: ADME, organism-based; parameters: dose 12.5 mg/kg, route oral; conditions: mouse, in vivo, read-out: Peak time (converted)
[24] = Tested for the peak time in mice following 39 mg/kg oral dose of cephalosporin; format: ADME, organism-based; parameters: dose 39 mg/kg, route oral; conditions: mouse, in vivo, read-out: Peak time (converted)
[25] = organism: Mus musculus; experiment: Tested for the antimicrobial activity against Streptococcus pyogenes (ST139) in mice, perorally; format: functional; conditions: po
[26] = tested on: Mus musculus; experiment: Tested for the antimicrobial activity against Streptococcus pyogenes (St141) in mice, subcutaneously; format: functional; conditions: sc
[27] = tested on: Mus musculus; experiment: Tested for the antimicrobial activity against Streptococcus pneumoniae (D137) in mice, subcutaneously; format: functional; conditions: sc
[28] = organism: Mus musculus; experiment: Tested for the antimicrobial activity against Staphylococcus aureus (M202) in mice, perorally; format: functional; conditions: po
[29] = organism: Mus musculus; experiment: Tested for the antimicrobial activity against Streptococcus pyogenes (St141) in mice, perorally; format: functional; conditions: po
[30] = tested on: Mus musculus; experiment: Tested for the antimicrobial activity against Staphylococcus aureus (M202) in mice, subcutaneously; format: functional; conditions: sc
[31] = organism: Mus musculus; experiment: Tested for the antimicrobial activity against Streptococcus pneumoniae (D137) in mice, perorally; format: functional; conditions: po
[32] = tested on: Mus musculus; experiment: Tested for the antimicrobial activity against Streptococcus pyogenes (ST139) in mice, subcutaneously; format: functional; conditions: sc
[33] = organism: Mus musculus; experiment: Tested for the antimicrobial activity against Staphylococcus aureus (M240) in mice, perorally; format: functional; conditions: po
[34] = tested on: Mus musculus; experiment: Tested for the antimicrobial activity against Staphylococcus aureus (M240) in mice, subcutaneously; format: functional; conditions: sc
[35] = tested on: Mus musculus; experiment: Tested for the antimicrobial activity against Streptococcus pneumoniae (D815) in mice, subcutaneously; format: functional; conditions: sc
[36] = organism: Mus musculus; experiment: Tested for the antimicrobial activity against Streptococcus pneumoniae (D815) in mice, perorally; format: functional; conditions: po
[37] = tested on: Pseudomonas aeruginosa; experiment: Tested for inhibition of visible growth of Pseudomonas aeruginosa; format: functional
[38] = Tested for the peak time in mice following 40 mg/kg oral dose of cephalosporin; format: ADME, organism-based; parameters: dose 40 mg/kg, route oral; conditions: mouse, in vivo, read-out: Peak time (converted)

Compound | MIC [1] [µg/mL] | MIC [2] [µg/mL] | ED50 [3] [mg/kg] | ED50 [4] [mg/kg] | MIC [5] [µg/mL] | MIC [6] [µg/mL] | ED50 [7] [mg/kg] | ED50 [8] [mg/kg] | MIC [9] [µg/mL] | MIC [10] [µg/mL] | ED50 [11] [mg/kg] | MIC [12] [µg/mL] | MIC [13] [µg/mL] | MIC [14] [µg/mL] | ED50 [15] [mg/kg] | MIC [16] [µg/mL] | MIC [17] [µg/mL] | ED50 [18] [mg/kg] | ED50 [19] [mg/kg] | ED50 [20] [mg/kg] | further results
CC1=C(C(=O)O)N2C(=O)C(NC(=O)[C@H](N)c3ccc4c(c3)OCCO4)C2SC1 (stereo partly specified) | > 100 | 0.8 (≈ 1.97 µM) | 15 | 8.3 | > 100 | > 100 | 1 | 0.81 | 3.1 (≈ 7.65 µM) | 0.8 (≈ 1.97 µM) | 14 | 100 (≈ 247 µM) | > 100 | 50 (≈ 123 µM) | 1.5 | > 100 | 0.4 (≈ 0.987 µM) | 0.5 | – | – | –
N[C@@H](C(=O)NC1C(=O)N2C(C(=O)O)=C(CSc3c[nH]nn3)CSC12)c1ccc2c(c1)OCO2 (stereo partly specified) | 50 (≈ 102 µM) | 0.2 (≈ 0.408 µM) | 5 | – | 50 (≈ 102 µM) | 50 (≈ 102 µM) | 0.41 | 0.32 | 0.8 (≈ 1.63 µM) | 0.4 (≈ 0.815 µM) | 4.1 | 3.1 (≈ 6.32 µM) | 50 (≈ 102 µM) | 1.6 (≈ 3.26 µM) | 0.13 | 12.5 (≈ 25.5 µM) | 0.2 (≈ 0.408 µM) | 0.7 | 9.1 | 24.8 | ED50 [21]: 12.5 mg/kg; ED50 [22]: 8.1 mg/kg; Tmax [23]: 20 min
CC1=C(C(=O)O)N2C(=O)C(NC(=O)[C@H](N)c3ccc4c(c3)CCO4)C2SC1 (stereo partly specified) | > 100 | 0.4 (≈ 1.03 µM) | 8.6 | 7 | > 100 | > 100 | 0.37 | 0.34 | 1.6 (≈ 4.11 µM) | 0.4 (≈ 1.03 µM) | 10 | 25 (≈ 64.2 µM) | > 100 | 12.5 (≈ 32.1 µM) | 0.63 | 50 (≈ 128 µM) | 0.2 (≈ 0.514 µM) | 0.67 | – | – | Tmax [24]: 10 min
CC1(C)S[C@@H]2[C@H](NC(=O)[C@H](N)c3ccc(O)cc3)C(=O)N2[C@H]1C(=O)O [AMOXICILLIN] | 1.6 (≈ 4.38 µM) | ≤ 0.03 | – | – | 0.4 (≈ 1.09 µM) | > 100 | – | – | 100 (≈ 274 µM) | 0.1 (≈ 0.274 µM) | – | 0.8 (≈ 2.19 µM) | > 100 | 0.4 (≈ 1.09 µM) | – | 6.2 (≈ 17 µM) | ≤ 0.03 | – | – | – | ED50 [25]: 0.073 mg/kg; ED50 [26]: 0.06 mg/kg; ED50 [27]: 0.14 mg/kg; ED50 [28]: 0.62 mg/kg; ED50 [29]: 0.08 mg/kg; ED50 [30]: 0.62 mg/kg; ED50 [31]: 0.25 mg/kg; ED50 [32]: 0.063 mg/kg; ED50 [33]: 0.31 mg/kg; ED50 [34]: 0.074 mg/kg; ED50 [35]: 0.05 mg/kg; ED50 [36]: 0.13 mg/kg; MIC [37]: > 100 µg/mL
CC1=C(C(=O)O)N2C(=O)C(NC(=O)[C@H](N)c3ccc4c(c3)OCO4)C2SC1 (stereo partly specified) | > 100 | 1.6 (≈ 4.09 µM) | 19 | 3.1 | > 100 | > 100 | 1 | 1.4 | 3.1 (≈ 7.92 µM) | 0.4 (≈ 1.02 µM) | 26 | 25 (≈ 63.9 µM) | > 100 | 12.5 (≈ 31.9 µM) | 0.45 | 25 (≈ 63.9 µM) | 0.8 (≈ 2.04 µM) | 0.61 | 15 | 28 | ED50 [21]: 37 mg/kg; Tmax [38]: 10 min; ED50 [22]: 33 mg/kg
